Measured values: publication PMC4019636, “Rational Design of Berberine-Based FtsZ Inhibitors with Broad-Spectrum Antibacterial Activity” (PLoS ONE, 2014)

Tested on: Gram-positive bacteria, including methicillin-resistant S. aureus and vancomycin-resistant E. faecium
Test: Antimicrobial susceptibility assay, summary over Gram-positive bacteria
Assay type: cell-based
Conditions: Staphylococcus aureus; Gram-positive bacteria incl. MRSA and VREF
Excerpt: The bacterial strains S. aureus ATCC 29213, S. aureus ATCC 29247, S. aureus ATCC BAA-41, E. faecium ATCC 49624, E. faecium ATCC 700221, E. faecalis ATCC 29212, S. epidermidis ATCC 12228, E. coli ATCC 25922, and K. pneumoniae ATCC BAA-1144 used in the antimicrobial susceptibility assays were purchased from American Type Culture Collection (ATCC, USA). B. subtilis strain 168 was already available in our in-house collection. E. coli JM109 WM647 was kindly provided by Dr. W. Margolin (University of Texas-Houston Medical School). FM 4–64 was purchased from Invitrogen (Eugene, Oregon). All other chemicals and reagents were purchased from Sigma-Aldrich. Stock solutions were prepared in DMSO. The final percentage of DMSO in the assays was 1% (v/v) for all experiments.
Antimicrobial susceptibility tests were conducted in 96-well microplates using the broth microdilution procedure described in the Clinical and Laboratory Standards Institute (CLSI) guidelines. […] After incubation for 18 h at 37°C, the absorbance at 600 nm (A600) was recorded using a microplate reader (Bio-Rad laboratory Ltd., UK) and the percentage of bacterial cell inhibition with respect to vehicles (1% DMSO) was calculated. […]

COc1ccc2cc3[n+](cc2c1OCCCOc1ccc(Cl)cc1)CCc1cc2c(cc1-3)OCO2 [Compound 2]
MIC: 2 to 4 µg/mL
